According to ChEMBL document CHEMBL2321798, “Polyamino geranic derivatives as new chemosensitizers to combat antibiotic resistant gram-negative bacteria” (Bioorg Med Chem, 2013):
≈ marks a conversion by molar mass, not a printed value. Calls of active or inactive are those of the source. The rule behind the calls is not given here. Residues, ends and D or L forms follow the SMILES beside them. *: point of attachment. βNA = c1ccc2cc(N*)ccc2c1

Assays:
Klebsiella aerogenes [1] = test: Reduction of multidrug-resistant in Enterobacter aerogenes Ea289 assessed as ratio of nalidixic acid MIC to nalidixic acid MIC in presence of compound at 75 uM by micro-broth dilution method; format: functional
Klebsiella aerogenes [2] = test: Antibacterial activity against Enterobacter aerogenes Ea294 harboring Ea289deltaacrB after 18 hrs by broth dilution method; format: functional; conditions: Ea294, 18 h
Salmonella typhimurium [3] = test: Reduction of multidrug-resistant in Salmonella enterica Typhimurium BN10055 harboring deltaacrB assessed as ratio of chloramphenicol MIC to chloramphenicol MIC in presence of compound by micro-broth dilution method; format: functional, organism-based; conditions: Salmonella enterica subsp. enterica serovar Typhimurium
Salmonella typhimurium [4] = test: Reduction of multidrug-resistant in Salmonella enterica Typhimurium BN10055 assessed as ratio of nalidixic acid MIC to nalidixic acid MIC in presence of compound at 75 uM by micro-broth dilution method; format: functional, Salmonella enterica subsp. enterica serovar Typhimurium
Salmonella typhimurium [5] = test: Antibacterial activity against Salmonella enterica Typhimurium BN10055 after 18 hrs by broth dilution method; format: functional, Salmonella enterica subsp. enterica serovar Typhimurium; conditions: BN10055, 18 h
Klebsiella aerogenes [6] = test: Reduction of multidrug-resistant in Enterobacter aerogenes Ea289 assessed as ratio of chloramphenicol MIC to chloramphenicol MIC in presence of compound at 75 uM by micro-broth dilution method; format: functional
Klebsiella aerogenes [7] = test: Antibacterial activity against Enterobacter aerogenes Ea289 after 18 hrs by broth dilution method; format: functional; conditions: Ea289, 18 h
Klebsiella aerogenes [8] = test: Reduction of multidrug-resistant in Enterobacter aerogenes Ea294 harboring Ea289deltaacrB assessed as ratio of chloramphenicol MIC to chloramphenicol MIC in presence of compound by micro-broth dilution method; format: functional, organism-based
Salmonella typhimurium [9] = test: Reduction of multidrug-resistant in Salmonella enterica Typhimurium BN10055 assessed as ratio of chloramphenicol MIC to chloramphenicol MIC in presence of compound at 75 uM by micro-broth dilution method; format: functional, Salmonella enterica subsp. enterica serovar Typhimurium
Salmonella typhimurium [10] = test: Reduction of multidrug-resistant in Salmonella enterica Typhimurium BN10055 harboring deltaacrB assessed as ratio of nalidixic acid MIC to nalidixic acid MIC in presence of compound by micro-broth dilution method; format: functional, organism-based; conditions: Salmonella enterica subsp. enterica serovar Typhimurium
CHO = test: Cytotoxicity against CHO cells; format: cell-based; conditions: Cricetulus griseus
Klebsiella aerogenes [11] = test: Reduction of multidrug-resistant in Enterobacter aerogenes Ea294 harboring Ea289deltaacrB assessed as ratio of nalidixic acid MIC to nalidixic acid MIC in presence of compound by micro-broth dilution method; format: functional, organism-based
[12] = molecular target: T1, AcrB protein (Klebsiella aerogenes) (UniProt Q9AEG1); test: Inhibition of AcrB in Enterobacter aerogenes Ea289 assessed as glucose-induced 1,2' dinaphthylamine efflux after 18 hrs
T1 sequence (whole entry): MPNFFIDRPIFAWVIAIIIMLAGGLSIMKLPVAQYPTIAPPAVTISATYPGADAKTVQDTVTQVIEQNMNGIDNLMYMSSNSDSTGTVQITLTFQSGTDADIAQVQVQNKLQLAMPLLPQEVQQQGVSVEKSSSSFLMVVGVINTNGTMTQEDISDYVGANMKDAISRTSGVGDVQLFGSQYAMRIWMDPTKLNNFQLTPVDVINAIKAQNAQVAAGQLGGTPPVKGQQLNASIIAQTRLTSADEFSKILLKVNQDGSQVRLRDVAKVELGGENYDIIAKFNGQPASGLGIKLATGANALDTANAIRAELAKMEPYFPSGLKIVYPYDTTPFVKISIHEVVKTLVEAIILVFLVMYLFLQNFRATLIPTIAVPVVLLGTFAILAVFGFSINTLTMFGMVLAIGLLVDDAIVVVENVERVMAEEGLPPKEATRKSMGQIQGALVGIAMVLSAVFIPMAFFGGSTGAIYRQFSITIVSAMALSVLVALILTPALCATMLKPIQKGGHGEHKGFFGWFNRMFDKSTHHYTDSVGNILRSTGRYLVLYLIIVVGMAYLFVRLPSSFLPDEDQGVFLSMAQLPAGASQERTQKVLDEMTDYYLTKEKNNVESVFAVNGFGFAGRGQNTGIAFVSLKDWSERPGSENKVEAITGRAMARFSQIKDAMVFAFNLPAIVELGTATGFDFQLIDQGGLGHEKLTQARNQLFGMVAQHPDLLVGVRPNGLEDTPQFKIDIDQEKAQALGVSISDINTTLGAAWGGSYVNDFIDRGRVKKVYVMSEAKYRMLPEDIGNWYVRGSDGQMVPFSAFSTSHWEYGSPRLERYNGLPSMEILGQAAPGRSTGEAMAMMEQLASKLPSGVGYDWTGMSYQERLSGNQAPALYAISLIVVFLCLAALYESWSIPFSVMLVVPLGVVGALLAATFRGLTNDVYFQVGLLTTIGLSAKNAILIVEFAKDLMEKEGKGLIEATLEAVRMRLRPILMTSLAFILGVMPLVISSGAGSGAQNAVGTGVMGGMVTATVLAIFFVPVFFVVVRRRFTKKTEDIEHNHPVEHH

Salmonella typhimurium [13] = test: Antibacterial activity against Salmonella enterica Typhimurium BN10055 harboring deltaacrB after 18 hrs by broth dilution method; format: functional, Salmonella enterica subsp. enterica serovar Typhimurium; conditions: BN10055, 18 h
Klebsiella aerogenes [14] = test: Reduction of multidrug-resistant in Enterobacter aerogenes Ea289 assessed as ratio of nalidixic acid MIC to nalidixic acid MIC in presence of compound at 38 uM by micro-broth dilution method; format: functional
Salmonella typhimurium [15] = test: Reduction of multidrug-resistant in Salmonella enterica Typhimurium BN10055 assessed as ratio of chloramphenicol MIC to chloramphenicol MIC in presence of compound at 38 uM by micro-broth dilution method; format: functional, Salmonella enterica subsp. enterica serovar Typhimurium
Salmonella typhimurium [16] = test: Reduction of multidrug-resistant in Salmonella enterica Typhimurium BN10055 assessed as ratio of nalidixic acid MIC to nalidixic acid MIC in presence of compound at 38 uM by micro-broth dilution method; format: functional, Salmonella enterica subsp. enterica serovar Typhimurium
Klebsiella aerogenes [17] = test: Reduction of multidrug-resistant in Enterobacter aerogenes Ea289 assessed as ratio of chloramphenicol MIC to chloramphenicol MIC in presence of compound at 38 uM by micro-broth dilution method; format: functional

SMILES | MIC (Klebsiella aerogenes [2]) | MIC (Salmonella typhimurium [5]) | MIC (Klebsiella aerogenes [7]) | MIC (Salmonella typhimurium [13]) | also measured
CC(C)=CCC/C(C)=C/C(=O)NCCCN1CCOCC1 | > 250 µM | > 250 µM | > 250 µM |  | Ratio (Klebsiella aerogenes [1]): 1; Activity (Salmonella typhimurium [3]): inactive; Ratio (Salmonella typhimurium [4]): 1; Ratio (Klebsiella aerogenes [6]): 1; Activity (Klebsiella aerogenes [8]): inactive; Ratio (Salmonella typhimurium [9]): 1; Activity (Salmonella typhimurium [10]): inactive; IC50 (CHO): > 150 µM; Activity (Klebsiella aerogenes [11]): inactive
CC(C)=CCC/C(C)=C/C(=O)NCCCNCCCCNCCCN |  |  |  |  | inhibition [12]: Dose-dependent effect
O=C(N[C@H](CO)[C@H](O)c1ccc([N+](=O)[O-])cc1)C(Cl)Cl [CHLORAMPHENICOL] | 200 µM (≈ 64.6 µg/mL) | 3200 µM (≈ 1030 µg/mL) | 3200 µM (≈ 1030 µg/mL) | 200 µM (≈ 64.6 µg/mL) | 
C[C@H]1c2cccc(O)c2C(=O)C2=C(O)[C@]3(O)C(=O)C(C(N)=O)=C(O)[C@@H](N(C)C)[C@@H]3[C@@H](O)[C@@H]21 [DOXYCYCLINE] | 2.25 µM (≈ 1 µg/mL) | 144 µM (≈ 64 µg/mL) | 72 µM (≈ 32 µg/mL) | 4.5 µM (≈ 2 µg/mL) | 
CC[C@H]1OC(=O)[C@H](C)[C@@H](O[C@H]2C[C@@](C)(OC)[C@@H](O)[C@H](C)O2)[C@H](C)[C@@H](O[C@@H]2O[C@H](C)C[C@H](N(C)C)[C@H]2O)[C@](C)(O)C[C@@H](C)C(=O)[C@H](C)[C@@H](O)[C@]1(C)O [ERYTHROMYCIN] | 110 µM (≈ 80.7 µg/mL) | 350 µM (≈ 257 µg/mL) | 350 µM (≈ 257 µg/mL) | 55 µM (≈ 40.4 µg/mL) | 
CCn1cc(C(=O)O)c(=O)c2ccc(C)nc21 [NALIDIXIC ACID] | 4400 µM (≈ 1020 µg/mL) | 17600 µM (≈ 4090 µg/mL) | 17600 µM (≈ 4090 µg/mL) | 275 µM (≈ 63.9 µg/mL) | 
N=C(N)NCCC[C@H](NC(=O)[C@@H](N)Cc1ccccc1)C(=O)Nc1ccc2ccccc2c1 [PABETAN] (H-Phe-Arg-βNA) | 150 µM (≈ 67 µg/mL) | 1220 µM (≈ 543 µg/mL) | 2430 µM (≈ 1090 µg/mL) | 150 µM (≈ 67 µg/mL) | Ratio (Klebsiella aerogenes [14]): 8; Ratio (Salmonella typhimurium [15]): 8; Ratio (Salmonella typhimurium [16]): 64; Ratio (Klebsiella aerogenes [17]): 16
